According to patent publication US20250215029A1 (Recludix Pharma, Inc., priority 2022, published 2025):

Assays:
[1] = target: T1, Recombinant STAT6 protein (STAT6 (W123-T658)) (Homo sapiens, UniProt P42226); assay: STAT6 Fluorescence Polarization (FP) Assay; type: binding; conditions: STAT6 (W123-T658) 250 nM, probe 5-FAM-Ap[…]-NH2 2 nM, 45-minute incubation; read-out: STAT6 (FP assay IC50 class)
T1 construct: Recombinant STAT6 protein (STAT6 (W123-T658))
T1 sequence (P42226 123-658): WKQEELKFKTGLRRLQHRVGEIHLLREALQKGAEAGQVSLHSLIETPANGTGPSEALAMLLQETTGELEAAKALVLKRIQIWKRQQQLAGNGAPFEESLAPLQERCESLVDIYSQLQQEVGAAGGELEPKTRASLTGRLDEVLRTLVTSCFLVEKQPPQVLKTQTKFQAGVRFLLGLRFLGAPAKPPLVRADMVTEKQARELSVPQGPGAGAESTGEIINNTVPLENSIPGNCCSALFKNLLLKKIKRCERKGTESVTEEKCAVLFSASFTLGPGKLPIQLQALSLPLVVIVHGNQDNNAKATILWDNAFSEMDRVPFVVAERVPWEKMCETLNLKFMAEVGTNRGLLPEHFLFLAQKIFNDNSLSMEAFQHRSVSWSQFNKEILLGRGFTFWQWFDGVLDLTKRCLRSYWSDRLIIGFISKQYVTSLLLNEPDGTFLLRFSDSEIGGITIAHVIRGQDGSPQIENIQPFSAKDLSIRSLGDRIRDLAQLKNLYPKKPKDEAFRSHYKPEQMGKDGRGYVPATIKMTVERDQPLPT
In short: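 Recombinant STAT6 (W123-T658) at 250 nM mixed with 2 nM 5-FAM phosphotyrosine peptide probe in HEPES pH 7.4 buffer with DTT, 1% DMSO final, added to serially diluted compounds. FP (mP) read after 45 min at room temperature; IC50 by nonlinear regression vs log concentration.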

[2] = target: T2, Recombinant STAT3 protein (STAT3 (G127-I722)) (Homo sapiens, UniProt P40763); assay: STAT3 Fluorescence Polarization (FP) Assay; type: binding; conditions: STAT3 (G127-I722) 25 nM, probe 5-FAM-GpYLPQTV-NH2 2 nM, 45-minute incubation; read-out: STAT3 (FP assay IC50 class)
T2 construct: Recombinant STAT3 protein (STAT3 (G127-I722))
T2 sequence (P40763 127-722): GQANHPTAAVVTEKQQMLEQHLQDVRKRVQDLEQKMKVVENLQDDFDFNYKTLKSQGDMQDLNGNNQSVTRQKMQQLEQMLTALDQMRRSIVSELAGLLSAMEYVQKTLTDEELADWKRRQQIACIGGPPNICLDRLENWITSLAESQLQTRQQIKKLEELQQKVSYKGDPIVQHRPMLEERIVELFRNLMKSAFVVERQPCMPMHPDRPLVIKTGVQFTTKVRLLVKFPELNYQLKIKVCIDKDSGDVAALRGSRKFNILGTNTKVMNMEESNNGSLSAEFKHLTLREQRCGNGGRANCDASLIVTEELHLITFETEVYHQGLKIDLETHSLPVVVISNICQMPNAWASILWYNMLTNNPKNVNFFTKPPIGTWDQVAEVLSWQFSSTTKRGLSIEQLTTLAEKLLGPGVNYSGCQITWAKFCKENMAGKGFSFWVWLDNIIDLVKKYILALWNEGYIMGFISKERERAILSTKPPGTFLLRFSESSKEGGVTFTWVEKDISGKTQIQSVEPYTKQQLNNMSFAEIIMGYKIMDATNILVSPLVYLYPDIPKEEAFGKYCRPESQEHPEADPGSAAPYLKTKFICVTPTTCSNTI
In short: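 Displacement of a fluorescent phosphotyrosine peptide (5-FAM-GpYLPQTV-NH2, 2 nM) from 25 nM recombinant STAT3 G127-I722 was monitored by FP after 45 min at room temperature.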

Structure (SMILES)	IC50 [1] [nM]	IC50 [2] [nM]
Cc1ccncc1C1CN(C(=O)[C@@H]2CC[C@@H]3CCC[C@H](NC(=O)c4cc5cc(C(F)(F)P(=O)(O)O)ccc5s4)C(=O)N32)C1 [Compound 783, (difluoro(2-(((3S,6S,9aS)-3-(3-(4-methylpyridin-3-yl)azetidine-1-carbonyl)-5-oxooctahydro-1H-pyrrolo[1,2-a]azepin-6-yl)carbamoyl)benzo [b]thiophen-5-yl)methyl) phosphonic acid]	> 30000	> 10000
CC(C)C1(c2ccccc2)CN(C(=O)[C@@H]2CC[C@@H]3CCC[C@H](NC(=O)c4cc5cc(C(F)(F)P(=O)(O)O)ccc5s4)C(=O)N32)C1 [Compound 784, (difluoro(2-(((3S,6S,9aS)-3-(3-isopropyl-3-phenylazetidine-1-carbonyl)-5-oxooctahydro-1H-pyrrolo[1,2-a]azepin-6-yl)carbamoyl)benzo [b]thiophen-5-yl)methyl) phosphonic acid]	3000 to 30000	100 to 1000
O=C(N[C@H]1CCC[C@H]2CC[C@@H](C(=O)N3CC(C4COC4)C3)N2C1=O)c1cc2cc(C(F)(F)P(=O)(O)O)ccc2s1 [Compound 785, (difluoro(2-(((3S,6S,9aS)-3-(3-(oxetan-3-yl)azetidine-1-carbonyl)-5-oxooctahydro-1H-pyrrolo[1,2-a]azepin-6-yl)carbamoyl)benzo [b]thiophen-5-yl)methyl) phosphonic acid]	3000 to 30000	100 to 1000
O=C(N[C@H]1CCCC[C@H]2CC[C@@H](C(=O)N3CCCC34CC4)N2C1=O)c1cc2cc(C(F)(F)P(=O)(O)O)ccc2s1 [Compound 786, (difluoro(2-(((3S,6S,10aS)-5-oxo-3-(4-azaspiro[2.4]heptane-4-carbonyl)decahydropyrrolo[1,2-a]azocin-6-yl)carbamoyl)benzo [b]thiophen-5-yl)methyl) phosphonic acid]	300 to 3000	1000 to 10000
CS(=O)(=O)NC1CN(C(=O)[C@@H]2CC[C@@H]3CCCC[C@H](NC(=O)c4cc5cc(C(F)(F)P(=O)(O)O)ccc5s4)C(=O)N32)C1 [Compound 787, (difluoro(2-(((3S,6S,10aS)-3-(3-(methylsulfonamido)azetidine-1-carbonyl)-5-oxodecahydropyrrolo [1,2-a]azocin-6-yl)carbamoyl)benzo [b]thiophen-5-yl)methyl) phosphonic acid]	300 to 3000	< 100
CN(CCc1cc[nH]c(=O)c1)C(=O)[C@@H]1CC[C@@H]2CCCC[C@H](NC(=O)c3cc4cc(C(F)(F)P(=O)(O)O)ccc4s3)C(=O)N21 [Compound 788, (difluoro(2-(((3S,6S,10aS)-3-(methyl(2-(2-oxo-1,2-dihydropyridin-4-yl)ethyl)carbamoyl)-5-oxodecahydropyrrolo [1,2-a]azocin-6-yl)carbamoyl)benzo [b]thiophen-5-yl)methyl) phosphonic acid]	300 to 3000	1000 to 10000
O=C(N[C@H]1CCCC[C@H]2CC[C@@H](C(=O)N3Cc4ccncc4C3)N2C1=O)c1cc2cc(C(F)(F)P(=O)(O)O)ccc2s1 [Compound 789, ((2-(((3S,6S,10aS)-3-(2,3-dihydro-1H-pyrrolo[3,4-c]pyridine-2-carbonyl)-5-oxodecahydropyrrolo [1,2-a]azocin-6-yl)carbamoyl)benzo [b]thiophen-5-yl)difluoromethyl) phosphonic acid]	300 to 3000	100 to 1000
CS(=O)(=O)CC1CN(C(=O)[C@@H]2CC[C@@H]3CCC[C@H](NC(=O)c4cc5cc(C(F)(F)P(=O)(O)O)ccc5s4)C(=O)N32)C1 [Compound 790, (difluoro(2-(((3S,6S,9aS)-3-(3-((methylsulfonyl)methyl)azetidine-1-carbonyl)-5-oxooctahydro-1H-pyrrolo[1,2-a]azepin-6-yl)carbamoyl)benzo [b]thiophen-5-yl)methyl) phosphonic acid]	3000 to 30000	< 100
CC(c1cc[nH]c(=O)c1)N(C)C(=O)[C@@H]1CC[C@@H]2CCCC[C@H](NC(=O)c3cc4cc(C(F)(F)P(=O)(O)O)ccc4s3)C(=O)N21 (stereo partly drawn) [Compound 791, (difluoro(2-(((3S,6S,10aS)-3-(methyl(1-(2-oxo-1,2-dihydropyridin-4-yl)ethyl)carbamoyl)-5-oxodecahydropyrrolo [1,2-a]azocin-6-yl)carbamoyl)benzo [b]thiophen-5-yl)methyl) phosphonic acid]	300 to 3000	100 to 1000
CC(NC(=O)[C@@H]1CC[C@@H]2CCCC[C@H](NC(=O)c3cc4cc(C(F)(F)P(=O)(O)O)ccc4s3)C(=O)N21)c1cc[nH]c(=O)c1 (stereo partly drawn) [Compound 792, (difluoro(2-(((3S,6S,10aS)-5-oxo-3-((1-(2-oxo-1,2-dihydropyridin-4-yl)ethyl)carbamoyl)decahydropyrrolo[1,2-a]azocin-6-yl)carbamoyl)benzo [b]thiophen-5-yl)methyl) phosphonic acid]	300 to 3000	100 to 1000
CC(C)n1cc(N(C)C(=O)[C@@H]2CC[C@@H]3CCCC[C@H](NC(=O)c4cc5cc(C(F)(F)P(=O)(O)O)ccc5s4)C(=O)N32)cn1 [Compound 793, (difluoro(2-(((3S,6S,10aS)-3-((1-isopropyl-1H-pyrazol-4-yl)(methyl)carbamoyl)-5-oxodecahydropyrrolo[1,2-a]azocin-6-yl)carbamoyl)benzo [b]thiophen-5-yl)methyl) phosphonic acid]	3000 to 30000	1000 to 10000
O=C(N[C@H]1CCCC[C@H]2CC[C@@H](C(=O)N3Cc4cn(C5CC5)nc4C3)N2C1=O)c1cc2cc(C(F)(F)P(=O)(O)O)ccc2s1 [Compound 794, ((2-(((3S,6S,10aS)-3-(2-cyclopropyl-2,4,5,6-tetrahydropyrrolo[3,4-c]pyrazole-5-carbonyl)-5-oxodecahydropyrrolo [1,2-a]azocin-6-yl)carbamoyl)benzo [b]thiophen-5-yl)difluoromethyl) phosphonic acid]	3000 to 30000	100 to 1000
CN(Cc1cc(=O)[nH]c2ccccc12)C(=O)[C@@H]1CC[C@@H]2CCCC[C@H](NC(=O)c3cc4cc(C(F)(F)P(=O)(O)O)ccc4s3)C(=O)N21 [Compound 795, (difluoro(2-(((3S,6S,10aS)-3-(methyl((2-oxo-1,2-dihydroquinolin-4-yl)methyl)carbamoyl)-5-oxodecahydropyrrolo [1,2-a]azocin-6-yl)carbamoyl)benzo [b]thiophen-5-yl)methyl) phosphonic acid]	300 to 3000	100 to 1000
COC1(c2nncn2C)CN(C(=O)[C@@H]2CC[C@@H]3CCC[C@H](NC(=O)c4cc5cc(C(F)(F)P(=O)(O)O)ccc5s4)C(=O)N32)C1 [Compound 796, (difluoro(2-(((3S,6S,9aS)-3-(3-methoxy-3-(4-methyl-4H-1,2,4-triazol-3-yl)azetidine-1-carbonyl)-5-oxooctahydro-1H-pyrrolo[1,2-a]azepin-6-yl)carbamoyl)benzo [b]thiophen-5-yl)methyl) phosphonic acid]	3000 to 30000	100 to 1000
O=C(N[C@H]1CCC[C@H]2CC[C@@H](C(=O)N3CC(c4cnccn4)C3)N2C1=O)c1cc2cc(C(F)(F)P(=O)(O)O)ccc2s1 [Compound 797, (difluoro(2-(((3S,6S,9aS)-5-oxo-3-(3-(pyrazin-2-yl)azetidine-1-carbonyl)octahydro-1H-pyrrolo[1,2-a]azepin-6-yl)carbamoyl)benzo [b]thiophen-5-yl)methyl) phosphonic acid]	3000 to 30000	100 to 1000
Cn1ccnc1C1CN(C(=O)[C@@H]2CC[C@@H]3CCC[C@H](NC(=O)c4cc5cc(C(F)(F)P(=O)(O)O)ccc5s4)C(=O)N32)C1 [Compound 799, (difluoro(2-(((3S,6S,9aS)-3-(3-(1-methyl-1H-imidazol-2-yl)azetidine-1-carbonyl)-5-oxooctahydro-1H-pyrrolo[1,2-a]azepin-6-yl)carbamoyl)benzo [b]thiophen-5-yl)methyl) phosphonic acid]	300 to 3000	< 100
CN(Cc1cc[nH]c(=O)c1)C(=O)[C@@H]1CC[C@@H]2CCCC[C@H](NC(=O)c3cc4cc(C(F)(F)P(=O)(O)O)ccc4s3)C(=O)N21 [Compound 800, (difluoro(2-(((3S,6S,10aS)-3-(methyl((2-oxo-1,2-dihydropyridin-4-yl)methyl)carbamoyl)-5-oxodecahydropyrrolo [1,2-a]azocin-6-yl)carbamoyl)benzo [b]thiophen-5-yl)methyl) phosphonic acid]	300 to 3000	1000 to 10000
